Reference: patent US20240254138A1, “TRICYCLIC PYRIMIDINES AS CYCLIN-DEPENDENT KINASE 7 (CDK7) INHIBITORS” (JANSSEN PHARMACEUTICA NV, priority 2021, published 2024)
Where two headings read alike, the source gives them in different places.

What was measured:
[1] = system: RNA Polymerase II Serine 5 phosphorylation in A549 cells overexpressing CDK7-mutant (C312S); assay: Imaging-based cellular RNA PolII Ser5 phosphorylation assay in A549 cells overexpressing CDK7-mutant (C312S); format: cell-based, human; conditions: A549 cells overexpressing CDK7-mutant (C312S); RNA PolII Ser5 phosphorylation; averaged over all measurements
Description: (§1) To evaluate inhibition of CDK7 kinase activity, a 384-well automated imaging assay was used. This assay detects Serine 5 phosphorylation on a unique heptapeptide sequence in the C-terminal domain of Rpb1 subunit of RNA polymerase II, the downstream substrate of CDK7. This heptapeptide sequence is repeated up to 52 times in the CTD of Rpb1.
(§2) A549 adenocarcinoma human alveolar basal epithelial cells (ATCC, CCL-185), rabbit Phospho-Rpb1 CTD (Ser5) antibody (D9N51 (Cell Signaling Technology)), DMEM (Sigma), Fetal Bovine Serum (Biowest), L-glutamine (Sigma), Penicillin/Streptomycin (Life Technologies), Sodium Pyruvate (Sigma), Hepes (Sigma), poly-D-lysine coated μclear 384 black plates (Greiner), formaldehyde (PolySciences), D-PBS (Sigma), Methanol (Sigma), Alexa Fluor 488 goat anti rabbit IgG secondary antibody (Life Technologies), HCS CellMask™ Deep Red stain (Life Technologies), Hoechst 33258 (Invitrogen).
(§3) RNA Polymerase II Serine 5 phosphorylation was detected using a specific rabbit Phospho-Rpb1 CTD (Ser5) antibody. A549 adenocarcinoma human alveolar basal epithelial cells were seeded in 20 μl medium (DMEM supplemented with 1% Fetal Bovine Serum (heat inactivated 30′ 56° C.), 2 mM L-glutamine, 50 U/ml penicillin 50 μg/ml streptomycin, 1 mM sodium pyruvate and 50 mM hepes) at 1000 cells/well and cultured in poly-D-lysine coated μclear 384 black plates for 20 hours at 37° C. and 5% CO2.
(§4) After incubation cells were challenged with compound for 3 hours at 37° C. and 5% CO2. DMSO was used as high control and as low control 10 μM of the following reference compound was used:
(§5) 40 nl of test compounds and controls were spotted in cell plates using Echo Liquid Handler (Echo 550, Labcyte). Incubation was followed by 20 minutes fixation with 20 μl 10% formaldehyde at room temperature. Medium/formaldehyde solution was removed, plates were washed 3 times with 30 μl D-PBS (w/o Ca^2+ and Ma^2+) and permeabilization was done by adding 20 μl ice cold methanol for 20 minutes. Cells were washed again 3 times with 30 μl D-PBS and 20 μl blocking buffer (25 ml fetal bovine serum in 500 ml D-PBS) was added for 1 hour.
(§6) After removing blocking buffer 20 μl 1/1000 primary antibody rabbit Phospho-Rpb1 CTD (Ser5) antibody was added which binds to the phosphorylated Serine5 of the heptapeptide sequences in the CTD of Rpb1. Primary antibody was removed, and plates were washed 3 times with 30 μl D-PBS followed by addition of 20 μl 1/2000 Alexa Fluor 488 goat anti rabbit IgG secondary antibody for final detection of Phospho-Rpb1 CTD (Ser5) together with 1/5000 HCS CellMask™ Deep Red stain for membrane staining and 1/5000 Hoechst 33258 for nucleus staining. Last, plates were washed 2 times with 30 μl D-PBS and wells were filled with 40 μL D-PBS, plates were sealed (Thermowell sealing tape) and stored at 4° C. until reading. Plates were read with Opera Phenix (Perkin Elmer) with 10× air objective. Data were calculated and analyzed in Phaedra.
(§7) IC50 values were calculated using the following formula: […]
(§8) Average value of all HC's and all LC's are used for normalizations.
(§9) A best-fit curve is fitted by a minimum sum of squares method to the plot of % Control vs. compound concentration. From this an IC50 value can be obtained. An estimate of the slope of the plot in terms of the Hill coefficient is also obtained.
In parallel this assay was performed in A549 cells overexpressing CDK7-mutant (C312S) to evaluate the effect of the covalent bond on potency and to screen for potential off-target effects. Mutation of Cysteine to Serine (C312S), a less nucleophilic amino acid, prevents CDK7 inhibitors from covalently binding to CDK7 and from inhibiting CDK7 activity in an irreversible manner. A stably transduced A549 cell pool was generated that overexpresses CDK7 mutant (C312S), but also expresses endogenous CDK7-WT. Covalent binders targeting the cysteine at position 312 will show a shift in potency in A549 cells overexpressing mutant C312S CDK7.

[2] = system: RNA Polymerase II Serine 5 phosphorylation (Rpb1 CTD, downstream substrate of CDK7) in A549 cells; assay: Imaging-based cellular RNA PolII Ser5 phosphorylation assay in A549 cells; format: cell-based, human; conditions: A549 cells, wild-type CDK7; RNA PolII Ser5 phosphorylation; averaged over all measurements
Description: as §1, §2, §3, §4, §5, §6, §7, §8, §9

[3] = biological target: CDK7/cyclinH/MAT1 trimeric complex (Homo sapiens, UniProt P50613); assay: In vitro CDK7 assay, potency of irreversible covalent inhibitors (kinact/KI), coupled PK/LDH ADP readout at 340 nm; conditions: for Ki: CDK7 (20 nM enz.) (KI, μM); for kinact: read-out: CDK7 (20 nM enz.) (kinact, s^−1), 20 nM enzyme
[4] = read-out: CDK7 (20 nM enz.) (kinact/KI, M^−1*s^−1), 20 nM enzyme
[5] = read-out: CDK7 (20 nM enz.) (kobs/[I], M^−1*s^−1), 20 nM enzyme

Chain of CDK7/cyclinH/MAT1 trimeric complex (P50613 whole entry): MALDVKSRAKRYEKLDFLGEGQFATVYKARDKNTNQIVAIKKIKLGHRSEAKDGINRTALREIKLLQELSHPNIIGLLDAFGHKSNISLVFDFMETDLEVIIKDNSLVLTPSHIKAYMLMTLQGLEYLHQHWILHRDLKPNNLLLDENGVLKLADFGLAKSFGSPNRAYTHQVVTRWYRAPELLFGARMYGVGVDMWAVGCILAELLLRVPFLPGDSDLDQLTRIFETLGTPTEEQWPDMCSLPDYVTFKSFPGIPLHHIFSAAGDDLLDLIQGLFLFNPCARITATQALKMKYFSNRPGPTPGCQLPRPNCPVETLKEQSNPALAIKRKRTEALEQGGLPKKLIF
Chain of CDK7/cyclinH/MAT1 trimeric complex (P51946 whole entry partner): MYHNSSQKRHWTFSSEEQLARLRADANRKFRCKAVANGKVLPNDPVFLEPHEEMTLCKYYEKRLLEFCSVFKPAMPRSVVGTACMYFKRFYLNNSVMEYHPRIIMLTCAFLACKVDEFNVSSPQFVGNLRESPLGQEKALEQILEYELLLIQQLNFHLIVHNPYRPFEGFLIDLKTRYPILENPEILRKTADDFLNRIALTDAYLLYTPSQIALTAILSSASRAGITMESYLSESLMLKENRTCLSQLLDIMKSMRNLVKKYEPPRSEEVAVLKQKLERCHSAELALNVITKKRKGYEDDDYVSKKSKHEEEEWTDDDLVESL
Chain of CDK7/cyclinH/MAT1 trimeric complex (P51948 whole entry partner): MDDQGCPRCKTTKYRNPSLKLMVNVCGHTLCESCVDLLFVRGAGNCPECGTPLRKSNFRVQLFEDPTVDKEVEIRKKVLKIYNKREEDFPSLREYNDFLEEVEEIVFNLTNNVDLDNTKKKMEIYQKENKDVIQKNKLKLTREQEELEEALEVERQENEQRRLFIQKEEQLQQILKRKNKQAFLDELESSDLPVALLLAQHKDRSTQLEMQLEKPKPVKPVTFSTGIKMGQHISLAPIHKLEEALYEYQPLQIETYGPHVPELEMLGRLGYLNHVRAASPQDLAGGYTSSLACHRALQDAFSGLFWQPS

Row | Ki ([3]; 20 nM enzyme) [µM] | kinact [3] [s⁻¹] | kinact/KI [3, 4] [M⁻¹ s⁻¹] | also measured | Structure (SMILES)
1 | – | – | – | CDK7_A549 mutant hCDK7(pIC50) [1]: <5; CDK7_A549 Wild-type CDK7 (pIC50) [2]: <5 | CC#CC(=O)N1CC[C@@H](N2CC(c3cc4c(c(C)n3)O[C@H](C)c3c(N5CCOCC5)ccnc3N4)C2)C1 (single isomer, unassigned) [Compound 531]
2 | 0.0237 | 5.03e-05 | 2120 | – | C=CC(=O)N1CCC(N2CCC(c3cc4c(c(C)n3)OCc3c(N5CCOCC5)ccnc3N4)CC2)CC1 [compound 324]
3 | 0.0452 | 5.34e-05 | 1180 | – | C=CC(=O)N1CC[C@H](N2CC(c3cc4c(c(C)n3)OCc3c(N5CCOCC5)ccnc3N4)C2)C1 (single isomer, unassigned) [compound 180]
4 | – | – | – | kinact/KI [3, 5]: 1190 M⁻¹ s⁻¹ | C=CC(=O)N1CC(N2CCC(c3ccc4c(c3)Nc3nccc(N5CCOCC5)c3[C@@H](C)O4)CC2)C1 (single isomer, unassigned) [compound 90]
5 | 2.63 | 3.59e-05 | 13.7 | – | C=CC(=O)N1CC(N2CC(c3cc4c(cn3)O[C@@H](C)c3c(-c5cnn(C)c5)ccnc3N4)C2)C1 (single isomer, unassigned) [compound 300]
6 | 0.156 | 4.48e-05 | 287 | – | C=CC(=O)N1CC(c2nc(C)c(-c3cc4c(c(C)n3)OCc3c(N5CCOCC5)ccnc3N4)c(C)n2)C1 [compound 277]
7 | 0.0672 | 9.76e-05 | 1450 | – | C=CC(=O)N1CC(N2CCC(c3cc4c(c(C)n3)O[C@H](C)c3c(C5CCOCC5)ccnc3N4)CC2)C1 (single isomer, unassigned) [compound 429]
8 | 0.204 | 6.25e-05 | 306 | – | C=CC(=O)N1CC(N2CC(c3cc4c(c(P(C)(C)=O)n3)OCc3c(N5CCOCC5)ccnc3N4)C2)C1 [compound 331]
9 | 0.186 | – | – | CDK7 (20 nM enz.) (kinact, s^−1) ([3]; 20 nM enzyme): 4.506e-05 s⁻¹; CDK7 (20 nM enz.) (kinact/KI, M^−1*s^−1) ([3]; 20 nM enzyme): 242.644 M⁻¹ s⁻¹ | CC#CC(=O)N1CC(N2CC(c3cc4c(c(C)n3)O[C@H](C)c3c(N5CCOCC5)ccnc3N4)C2)C1 (single isomer, unassigned) [compound 444]
10 | 0.0606 | 5.08e-05 | 839 | – | C=CC(=O)N1CC[C@@H](N2CC(c3cc4c(c(C)n3)OCc3c(N5CCOCC5)ccnc3N4)C2)C1 (single isomer, unassigned) [compound 179]
11 | – | – | – | kinact/KI [3, 5]: 1100 M⁻¹ s⁻¹ | C=CC(=O)N1CC(N2CCC(c3cc(C)c4c(c3)Nc3nccc(N5CCS(=O)(=O)CC5)c3CO4)CC2)C1 [Compound 75]
12 | 7.92 | 4.55e-05 | 5.74 | – | C=CC(=O)N1CC[C@@H](N2CC(c3cc4c(c(C)n3)O[C@@H](C)c3c(-c5cnn(C)c5)ccnc3N4)C2)C1 (single isomer, unassigned) [compound 420]
13 | – | – | – | kinact/KI [3, 5]: 1040 M⁻¹ s⁻¹ | C#CCCN(C)C/C=C/C(=O)N1CC(N2CCC(c3cc(Cl)c4c(c3)Nc3nccc(C5CCOCC5)c3CO4)CC2)C1 [compound 249]
14 | 0.168 | 4.84e-05 | 287 | – | C=CC(=O)N1CC(N2CCC(c3cc4c(c(C)n3)OCc3c(C5CCOCC5)ccnc3N4)CC2)C1 [compound 208]
15 | – | – | – | kinact/KI [3, 5]: 417 M⁻¹ s⁻¹; CDK7_A549 mutant hCDK7(pIC50) [1]: <5 | C#Cc1cc2c(cc1C1CCN(C3CN(C(=O)C=C)C3)CC1)Nc1nccc(N3CCOCC3)c1[C@H](C)O2 (single isomer, unassigned) [Compound 214]
